According to patent US20220213440A1, “DENDRITIC CELL IMMUNOTHERAPY” (BAYLOR COLLEGE OF MEDICINE, priority 2015, published 2022):

Experiments:
[1] = system: sCTLA-4 and AIMp1 secretion from human DC; experiment: sCTLA-4 and AIMp1 western blots of human DC culture supernatants with TLR agonistic stimuli; format: cell-based; settings: 1 μg/ml, absence of antigenic loading
[2] = system: AIMp1 and sCTLA-4 secretion from mouse DC; experiment: AIMp1 / sCTLA-4 Western blot of mouse DC culture supernatants; format: cell-based; settings: mouse DC (not shown), 1 μg/ml, absence of antigenic loading
Excerpt: (§1) FIGS. 1A-F: Concurrent loading of antigenically related MHC Class I and II determinants promote TH1-polarization of mouse DC. […] This effect was abrogated by siRNA knockdown of AIMp1. Antigens were derived from the RAW264.7 cell line. Heterologous Class II antigens were derived from the 4T1 breast cancer cell line. Y-axis: fold change in IL-12p70 secretion from unloaded (UL) DC. […] Top panel: AIMp1 release following homologous loading with RAW264.7 antigenic determinants. Heterologous lysate derived from 4T1. Bottom panel: AIMp1 release following homologous loading with primary SV antigenic determinants. Heterologous lysate derived from primary prostate. […] Shown: sCTLA-4 release following homologous loading with RAW264.7 antigenic determinants. Heterologous lysate derived from 4T1. […] Data shown are indicative of typical AIMp1 knockdown of >70%. […] This effect was abrogated by treatment of homologously-loaded DC with AIMp1 siRNA. Heterologous lysate was primary prostate. Y-axis: fold change in total cell count in comparison to unloaded (UL) DC. […]
Quantitation of Western Blot Images—Western blot chemiluminescent signal was detected using a ChemiDoc XRS digital imaging system running Image Lab software Version 2.0.1 (Bio-Rad Laboratories, Hercules, Calif.). All Western blots were quantitated by densitometry of Ponceau S (Sigma-Aldrich) stained membranes. […]

[3] = system: H2-DM^−/− DC; experiment: AIMp1 / sCTLA-4 secretion from H2-DM-/- DC loaded with class I peptide; format: cell-based, mouse
Excerpt: FIGS. 3A-G: AIMp1/sCTLA-4 modulation is dependent upon binding of homologous class I and II peptide to MHC. (A) sCTLA-4 (right) and AIMp1 (left) western blots of wild type (top) and H2-DM^−/− (bottom) murine DC culture supernatants following single, homologous, or heterologous loading with SV mRNA and lysate. Representative experiment shown. (B) Densitometry quantitation of AIMp1/sCTLA-4 ratios of the data depicted in (a) over three independent experiments. Top panel: wild type DC. Bottom panel: H2-DM^−/− DC. […] (Glycine Pair: Class I=SEQ ID NO: 3, Class II=SEQ ID NO: 2; Methionine Pair: Class I=SEQ ID NO: 8, Class II=SEQ ID NO: 9) (F) Densitometric quantitation of the data presented in (e). […]
Preparation of Vaccine Materials, Loading of DC, and In vitro CoCulture—Seminal vesicle (SV) and prostate were harvested from 10 week old male mice and immediately frozen at −80° C. […] To generate mRNA, total RNA was isolated from homogenized tissue using Trizol reagent (Life Technologies, Carlsbad, Calif.) according to the manufacturer's instructions, and mRNA was isolated from total RNA using an Oligotex mRNA Maxi Kit (Qiagen, Valencia, Calif.) also according to the manufacturer's instructions. mRNA was quantitated with a Nanodrop spectrophotometer (Thermo Scientific) and integrity was verified by gel electrophoresis. […]

[4] = system: CD8^+ T-cells; experiment: In vitro co-culture of loaded mouse DC with splenocytes, T-cell populations; format: cell-based; settings: loaded H2-DM^−/− DC with wild type syngeneic splenocytes
Excerpt: as §1, with “prostate.” for “prostate. Y-axis: fold change in total cell count in comparison to unloaded (UL) DC.”
FIGS. 3A-G: AIMp1/sCTLA-4 modulation is dependent upon binding of homologous class I and II peptide to MHC. […] (B) Densitometry quantitation of AIMp1/sCTLA-4 ratios of the data depicted in (a) over three independent experiments. […] (Glycine Pair: Class I=SEQ ID NO: 3, Class II=SEQ ID NO: 2; Methionine Pair: Class I=SEQ ID NO: 8, Class II=SEQ ID NO: 9) (F) Densitometric quantitation of the data presented in (e). […]

Substance	sCTLA-4 or AIMp1 secretion with TLR agonist [1]	sCTLA-4 or AIMp1 secretion with TLR agonist [2]	AIMp1 release ([3]; SIINFEKL as control)	sCTLA-4 secretion ([3]; dose-dependent)	CD8^+CD25^+ T cells after coculture [4]
polyinosine-polycytidylic acid [poly(I:C)]	Neither poly(I:C), LPS, flagellin, nor CpG-ODN altered sCTLA-4 or AIMp1 secretion	Neither poly(I:C), LPS, flagellin, nor CpG-ODN altered sCTLA-4 or AIMp1 secretion			
MRMATPLLM [H-2D^b CLIP]			Substantial AIMp1 release was observed in a dose-dependent fashion	diminution of sCTLA-4 secretion	increase in CD8^+CD25^+ T cells
flagellin	Neither poly(I:C), LPS, flagellin, nor CpG-ODN altered sCTLA-4 or AIMp1 secretion	Neither poly(I:C), LPS, flagellin, nor CpG-ODN altered sCTLA-4 or AIMp1 secretion			
